From US12077503B2, “Substituted cyclic amides and their use as herbicides” (FMC CORPORATION, priority 2015, dated 2024)

Columns and labels:
Assay type in all cases: in vivo
[1] = system: barnyardgrass (Echinochloa crus-galli); test: Test G Pre-Emergence Protocol; conditions: Echinochloa crus-galli, pre-emergence, 312 h, evaluated after 13 days; for pest or weed control at 15.625 g/ha: 15.625 g ai/ha, read-out: Barnyard grass damage rating (100=total damage to plant; 0=no damage to plant); for pest or weed control at 62.5 g/ha: 62.5 g ai/ha, 100=total damage to plant, 0=no damage to plant, read-out: plant damage rating, Barnyardgrass; for pest or weed control at 250 g/ha: 250 g ai/ha, read-out: Barnyardgrass damage rating (100=total damage to plant; 0=no damage to plant)
Procedure, shortened: (§1)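 Pots of seeds in standard soil were grown for one day in a glasshouse (24/16 °C day/night, 14 h light, 65% humidity), then sprayed with compound in acetone/water 50:50 with 0.5% Tween 20 at 15.625, 62.5 or 250 g/ha. Damage was scored after 13 days on a 0 (none) to 100 (total) scale.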

corn (Zea mays) [2] = test: Test G Pre-Emergence Protocol; conditions: Zea mays, pre-emergence, 312 h, evaluated after 13 days; for plant injury at 15.625 g/ha: 15.625 g ai/ha; for plant injury at 15.625 g/ha / plant injury at 250 g/ha: read-out: Corn damage rating (100=total damage to plant; 0=no damage to plant); for plant injury at 62.5 g/ha: 62.5 g ai/ha, 100=total damage to plant, 0=no damage to plant, read-out: plant damage rating, Corn; for plant injury at 250 g/ha: 250 g ai/ha
Procedure, shortened: as §1

[3] = system: giant foxtail (Setaria faberi); test: Test G Pre-Emergence Protocol; conditions: Setaria faberi, pre-emergence, 312 h, evaluated after 13 days; for pest or weed control at 15.625 g/ha: 15.625 g ai/ha; for pest or weed control at 15.625 g/ha / pest or weed control at 250 g/ha: read-out: Foxtail, Giant damage rating (100=total damage to plant; 0=no damage to plant); for pest or weed control at 62.5 g/ha: 62.5 g ai/ha, 100=total damage to plant, 0=no damage to plant, read-out: plant damage rating, Foxtail, Giant; for pest or weed control at 250 g/ha: 250 g ai/ha
Procedure, shortened: as §1

[4] = system: ivy-leaved morning glory (Ipomoea hederacea); test: Test G Pre-Emergence Protocol; conditions: Ipomoea, pre-emergence, 312 h, evaluated after 13 days; for pest or weed control at 15.625 g/ha: 15.625 g ai/ha, read-out: Morning-glory, Ivy-leaved damage rating (100=total damage to plant; 0=no damage to plant); for pest or weed control at 250 g/ha: 250 g ai/ha, read-out: Morningglory, Ivy-leaved damage rating (100=total damage to plant; 0=no damage to plant)
Procedure, shortened: as §1

[5] = system: redroot pigweed (Amaranthus retroflexus); test: Test G Pre-Emergence Protocol; conditions: Amaranthus retroflexus, pre-emergence, 312 h, evaluated after 13 days; for pest or weed control at 15.625 g/ha: 15.625 g ai/ha; for pest or weed control at 15.625 g/ha / pest or weed control at 250 g/ha: read-out: Pigweed, Redroot damage rating (100=total damage to plant; 0=no damage to plant); for pest or weed control at 62.5 g/ha: 62.5 g ai/ha, 100=total damage to plant, 0=no damage to plant, read-out: plant damage rating, Pigweed, Redroot; for pest or weed control at 250 g/ha: 250 g ai/ha
Procedure, shortened: as §1

[6] = system: velvetleaf (Abutilon theophrasti); test: Test G Pre-Emergence Protocol; conditions: Abutilon theophrasti, pre-emergence, 312 h, evaluated after 13 days; for pest or weed control at 15.625 g/ha: 15.625 g ai/ha; for pest or weed control at 15.625 g/ha / pest or weed control at 250 g/ha: read-out: Velvetleaf damage rating (100=total damage to plant; 0=no damage to plant); for pest or weed control at 62.5 g/ha: 62.5 g ai/ha, 100=total damage to plant, 0=no damage to plant, read-out: plant damage rating, Velvetleaf; for pest or weed control at 250 g/ha: 250 g ai/ha
Procedure, shortened: as §1

[7] = system: barnyardgrass (Echinochloa crus-galli); test: Test G Post-Emergence Protocol; conditions: Echinochloa crus-galli, post-emergence, 312 h; for pest or weed control at 15.625 g/ha: 15.625 g ai/ha, evaluated after 13 days (100=total damage to plant; 0=no damage to plant), read-out: Barnyardgrass damage rating; for pest or weed control at 62.5 g/ha: 62.5 g ai/ha, read-out: Barnyardgrass damage rating (100=total damage to plant; 0=no damage to plant); for pest or weed control at 62.5 g/ha / pest or weed control at 250 g/ha: evaluated after 13 days; for pest or weed control at 250 g/ha: 250 g ai/ha, read-out: damage to plant, Barnyardgrass (100=total damage to plant; 0=no damage to plant)
Procedure, shortened: (§2)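 Scores run 0 (no damage) to 100 (total damage) and were taken 13 days after spraying. Plants had been raised in pots for 8 days under glasshouse control (24/16 °C, 14 h photoperiod, 65% humidity) and then treated at 15.625, 62.5 or 250 g/ha.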

corn (Zea mays) [8] = test: Test G Post-Emergence Protocol; conditions: Zea mays, post-emergence, 312 h; for plant injury at 15.625 g/ha: 15.625 g ai/ha, evaluated after 13 days (100=total damage to plant; 0=no damage to plant), read-out: Corn damage rating; for plant injury at 62.5 g/ha: 62.5 g ai/ha, read-out: Corn damage rating (100=total damage to plant; 0=no damage to plant); for plant injury at 62.5 g/ha / plant injury at 250 g/ha: evaluated after 13 days; for plant injury at 250 g/ha: 250 g ai/ha, read-out: damage to plant, Corn (100=total damage to plant; 0=no damage to plant)
Procedure, shortened: as §2

[9] = system: giant foxtail (Setaria faberi); test: Test G Post-Emergence Protocol; conditions: Setaria faberi, post-emergence, 312 h; for pest or weed control at 15.625 g/ha: 15.625 g ai/ha, evaluated after 13 days (100=total damage to plant; 0=no damage to plant), read-out: Foxtail, Giant damage rating; for pest or weed control at 62.5 g/ha: 62.5 g ai/ha, read-out: Foxtail, Giant damage rating (100=total damage to plant; 0=no damage to plant); for pest or weed control at 62.5 g/ha / pest or weed control at 250 g/ha: evaluated after 13 days; for pest or weed control at 250 g/ha: 250 g ai/ha, read-out: damage to plant, Foxtail, Giant (100=total damage to plant; 0=no damage to plant)
Procedure, shortened: as §2

[10] = system: ivy-leaved morning glory (Ipomoea hederacea); test: Test G Post-Emergence Protocol; conditions: Ipomoea, post-emergence, 312 h; for pest or weed control at 15.625 g/ha: 15.625 g ai/ha, evaluated after 13 days (100=total damage to plant; 0=no damage to plant), read-out: Morningglory, Ivy-leaved damage rating; for pest or weed control at 62.5 g/ha: 62.5 g ai/ha, read-out: Morningglory, Ivy-leaved damage rating (100=total damage to plant; 0=no damage to plant); for pest or weed control at 62.5 g/ha / pest or weed control at 250 g/ha: evaluated after 13 days; for pest or weed control at 250 g/ha: 250 g ai/ha, read-out: damage to plant, Morningglory, Ivy-leaved (100=total damage to plant; 0=no damage to plant)
Procedure, shortened: as §2

[11] = system: redroot pigweed (Amaranthus retroflexus); test: Test G Post-Emergence Protocol; conditions: Amaranthus retroflexus, post-emergence, 312 h; for pest or weed control at 15.625 g/ha: 15.625 g ai/ha, evaluated after 13 days (100=total damage to plant; 0=no damage to plant), read-out: Pigweed, Redroot damage rating; for pest or weed control at 62.5 g/ha: 62.5 g ai/ha, read-out: Pigweed, Redroot damage rating (100=total damage to plant; 0=no damage to plant); for pest or weed control at 62.5 g/ha / pest or weed control at 250 g/ha: evaluated after 13 days; for pest or weed control at 250 g/ha: 250 g ai/ha, read-out: damage to plant, Pigweed, Redroot (100=total damage to plant; 0=no damage to plant)
Procedure, shortened: as §2

[12] = system: velvetleaf (Abutilon theophrasti); test: Test G Post-Emergence Protocol; conditions: Abutilon theophrasti, post-emergence, 312 h; for pest or weed control at 15.625 g/ha: 15.625 g ai/ha, evaluated after 13 days (100=total damage to plant; 0=no damage to plant), read-out: Velvetleaf damage rating; for pest or weed control at 62.5 g/ha: 62.5 g ai/ha, read-out: Velvetleaf damage rating (100=total damage to plant; 0=no damage to plant); for pest or weed control at 62.5 g/ha / pest or weed control at 250 g/ha: evaluated after 13 days; for pest or weed control at 250 g/ha: 250 g ai/ha, read-out: damage to plant, Velvetleaf (100=total damage to plant; 0=no damage to plant)
Procedure, shortened: as §2

Row | SMILES | pest or weed control at 15.625 g/ha [1] [%] | pest or weed control at 62.5 g/ha [1] [%] | pest or weed control at 250 g/ha [1] [%] | plant injury at 15.625 g/ha (corn (Zea mays) [2]) [%] | plant injury at 62.5 g/ha (corn (Zea mays) [2]) [%] | plant injury at 250 g/ha (corn (Zea mays) [2]) [%] | pest or weed control at 15.625 g/ha [3] [%] | pest or weed control at 62.5 g/ha [3] [%] | pest or weed control at 250 g/ha [3] [%] | pest or weed control at 15.625 g/ha [4] [%] | pest or weed control at 250 g/ha [4] [%] | pest or weed control at 15.625 g/ha [5] [%] | pest or weed control at 62.5 g/ha [5] [%] | pest or weed control at 250 g/ha [5] [%] | pest or weed control at 15.625 g/ha [6] [%] | pest or weed control at 62.5 g/ha [6] [%] | pest or weed control at 250 g/ha [6] [%] | pest or weed control at 15.625 g/ha [7] [%] | pest or weed control at 62.5 g/ha [7] [%] | pest or weed control at 250 g/ha [7] [%] | further results
1 | CCc1nccc(NC(=O)[C@@H]2C(=O)N(C)C[C@H]2c2ccc(C(F)(F)F)cc2)c1Cl (racemic) [Compound 1538] | 0 | 30 | 50 | 0 | 0 | 0 | 0 | 20 | 60 | 0 | 70 | 0 | 0 | 0 | 0 | 0 | 0 | 0 | 0 | 10 | pest or weed control at 62.5 g/ha ([4]; 62.5 g ai/ha, 100=total damage to plant, 0=no damage to plant, read-out: plant damage rating, Morningglory, Ivy-leaved): 0%; plant injury at 15.625 g/ha (corn (Zea mays) [8]): 0%; plant injury at 62.5 g/ha (corn (Zea mays) [8]): 0%; plant injury at 250 g/ha (corn (Zea mays) [8]): 10%; pest or weed control at 15.625 g/ha [9]: 10%; pest or weed control at 62.5 g/ha [9]: 30%; pest or weed control at 250 g/ha [9]: 50%; pest or weed control at 15.625 g/ha [10]: 0%; pest or weed control at 62.5 g/ha [10]: 0%; pest or weed control at 250 g/ha [10]: 0%; pest or weed control at 15.625 g/ha [11]: 0%; pest or weed control at 62.5 g/ha [11]: 0%; pest or weed control at 250 g/ha [11]: 0%; pest or weed control at 15.625 g/ha [12]: 0%; pest or weed control at 62.5 g/ha [12]: 0%; pest or weed control at 250 g/ha [12]: 0%
2 | CSc1nc(NC(=O)[C@@H]2C(=O)N(C)C[C@H]2c2ccc(C(F)(F)F)cc2)n[nH]1 (racemic) [Compound 1539] | 0 | 10 | 20 | 0 | 0 | 0 | 0 | 10 | 20 | 0 | 0 | 0 | 0 | 0 | 0 | 0 | 0 | 0 | 0 | 0 | plant injury at 15.625 g/ha (corn (Zea mays) [8]): 0%; plant injury at 62.5 g/ha (corn (Zea mays) [8]): 0%; plant injury at 250 g/ha (corn (Zea mays) [8]): 0%; pest or weed control at 15.625 g/ha [9]: 0%; pest or weed control at 62.5 g/ha [9]: 0%; pest or weed control at 250 g/ha [9]: 0%; pest or weed control at 15.625 g/ha [10]: 0%; pest or weed control at 62.5 g/ha [10]: 0%; pest or weed control at 250 g/ha [10]: 0%; pest or weed control at 15.625 g/ha [11]: 0%; pest or weed control at 62.5 g/ha [11]: 0%; pest or weed control at 250 g/ha [11]: 0%; pest or weed control at 15.625 g/ha [12]: 0%; pest or weed control at 62.5 g/ha [12]: 0%; pest or weed control at 250 g/ha [12]: 0%
